Results reported in PubChem BioAssay (NCI).
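Interpolation was linear, between the two tested concentrations surrounding the appropriate level; five concentrations were tested over 48 hours in 96-well plates. Abbreviation: GI50, concentration required for 50% inhibition of growth. TGI denotes the concentration required for complete inhibition of growth.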

Legend:
Assay in all cases: inhibition of tumour cell growth, NCI panel, 48 h
SF-268 CNS = system: SF-268 CNS
TK-10 renal = system: TK-10 renal
CCRF-CEM leukemia = system: CCRF-CEM leukemia
PC-3 prostate = system: PC-3 prostate
SK-OV-3 ovarian = system: SK-OV-3 ovarian
ACHN renal = system: ACHN renal
NCI/ADR-RES ovarian = system: NCI/ADR-RES ovarian
M14 melanoma = system: M14 melanoma
T-47D breast = system: T-47D breast
SK-MEL-5 melanoma = system: SK-MEL-5 melanoma

Compound | TGI (SF-268 CNS) [µM] | TGI (TK-10 renal) [µM] | TGI (CCRF-CEM leukemia) [µM] | TGI (PC-3 prostate) [µM] | TGI (SK-OV-3 ovarian) [µM] | TGI (ACHN renal) [µM] | TGI (NCI/ADR-RES ovarian) [µM] | TGI (M14 melanoma) [µM] | TGI (T-47D breast) [µM] | TGI (SK-MEL-5 melanoma) [µM] | GI50 (CCRF-CEM leukemia) [µM] | GI50 (T-47D breast) [µM] | GI50 (SF-268 CNS) [µM] | GI50 (TK-10 renal) [µM] | GI50 (PC-3 prostate) [µM] | GI50 (SK-OV-3 ovarian) [µM] | GI50 (ACHN renal) [µM] | GI50 (NCI/ADR-RES ovarian) [µM] | GI50 (M14 melanoma) [µM] | GI50 (SK-MEL-5 melanoma) [µM]
Cc1cn(C2C=CC(COP(=O)(OCc3ccc([N+](=O)[O-])o3)N(C)CCCCCl)O2)c(=O)[nH]c1=O (stereo not drawn) | 23.8 | 34.3 | 25.4 | 27.8 | 24 | 28.6 | > 100 | 17.3 | 7.05 | 3.26 | – | – | – | – | – | – | – | – | – | –
CCCCN(CCCC)CCC(O)c1cc(-c2ccc(C(F)(F)F)cc2)nc(-c2ccc(C(F)(F)F)cc2)c1 (stereo not drawn) | > 100 | > 100 | > 100 | > 100 | – | > 100 | > 100 | > 100 | > 100 | – | – | – | – | – | – | – | – | – | – | –
NC1C=NNC1=O (stereo not drawn) | > 100 | > 100 | > 100 | – | > 100 | > 100 | – | > 100 | – | > 100 | – | – | – | – | – | – | – | – | – | –
CC(C)=Cc1cc(C)c2c3c(c(O)c(O)c(C)c13)C(C)=CC2=O | 60.3 | – | – | > 100 | 89 | 56.2 | 81.5 | 48.9 | 49.3 | 35 | – | – | – | – | – | – | – | – | – | –
COc1cc2c(cc1OC)C1c3ccccc3CCN1CCC2 (stereo not drawn) | > 100 | > 100 | > 100 | > 100 | > 100 | > 100 | > 100 | > 100 | > 100 | > 100 | – | – | – | – | – | – | – | – | – | –
CC1C2CCC3C(O)C2(CC(O)C2(O)C1CC(O)C2(C)C)CC3(C)O (stereo not drawn) | > 100 | > 100 | > 100 | > 100 | > 100 | > 100 | > 100 | > 100 | > 100 | > 100 | – | – | – | – | – | – | – | – | – | –
COc1ccc(C(=O)NC2=C(Cl)C(=O)c3ccccc3C2=O)cc1 | 35.6 | 7.7 | > 100 | 10.8 | 9.85 | 1.73 | 9.05 | 6.95 | 3.83 | 4.59 | – | – | – | – | – | – | – | – | – | –
OC(c1ccc(Cl)cc1)(c1ccc(Cl)cc1)c1cncnc1 | – | 57.5 | 54.1 | 31.7 | – | – | 74.8 | 32.8 | > 100 | 27 | – | – | – | – | – | – | – | – | – | –
O=C(Nn1c(-c2cccs2)nc2ccc(I)cc2c1=O)c1ccccc1 | > 100 | 63.1 | > 100 | > 100 | – | > 100 | > 100 | > 100 | 37.6 | 76.8 | 38.5 | 11.1 | – | – | – | – | – | – | – | –
Nc1c(OCC(=O)O)ccc2cc(S(=O)(=O)O)ccc12 | > 100 | > 100 | > 100 | > 100 | > 100 | > 100 | > 100 | > 100 | > 100 | > 100 | – | – | – | – | – | – | – | – | – | –
O=NN1C(c2ccccc2)C2CCCC(C2=O)C1c1ccccc1 (stereo not drawn) | > 100 | – | > 83.6 | – | 73.6 | – | > 89.6 | – | – | 35.7 | – | – | – | – | – | – | – | – | – | –
c1ccc2c(c1)OCCc1cn[nH]c1-2 | > 100 | – | > 100 | – | > 100 | – | > 100 | – | – | > 100 | – | – | – | – | – | – | – | – | – | –
CN(CCO)Cc1ncccc1O | > 100 | > 100 | > 100 | > 100 | > 100 | > 100 | > 100 | > 100 | > 100 | > 100 | – | – | – | – | – | – | – | – | – | –
O=C1CCCC/C1=C1/SC(=Nc2ccccc2)C(=Nc2ccccc2)N1c1ccccc1 | – | – | > 100 | – | > 100 | – | > 100 | > 100 | > 100 | – | – | – | – | – | – | – | – | – | – | –
CCc1c2cc(OC)c(OC)cc2cc2c3cc(OC)c(OC)cc3cc[n+]12 (tested in a mixture with another compound) | 41.3 | > 100 | > 100 | > 83.1 | > 97.2 | > 71.2 | > 61.1 | > 86.6 | > 67 | 48.9 | – | – | – | – | – | – | – | – | – | –
O=C(O)C1OC1C(=O)O (stereo not drawn) | > 100 | > 100 | – | – | > 100 | > 100 | > 100 | > 100 | > 100 | > 100 | – | – | – | – | – | – | – | – | – | –
CN1CC(c2ccccc2)C(O)(C2(c3ccccc3)CN(C)CC(c3ccccc3)C2=O)C(c2ccccc2)C1 (stereo not drawn) | > 100 | > 100 | – | > 100 | – | > 100 | > 100 | > 100 | > 100 | > 100 | – | – | – | – | – | – | – | – | – | –
CC[C@@]1(OC(=O)CN(C)C)C(=O)OCc2c1cc1n(c2=O)Cc2cc3c(N)cccc3nc2-1 | 0.11 | > 100 | 0.025 | > 100 | 0.884 | 0.287 | 2.41 | 0.128 | 0.868 | – | < 0.01 | 0.0253 | < 0.01 | 1.68 | 0.0524 | 0.0402 | 0.0286 | 0.034 | 0.0178 | –
C[C@]12Cc3cnc(-c4ccccc4)nc3C[C@@H]1CC[C@@H]1[C@@H]2CC[C@@]2(C)[C@H]1CC[C@]2(C)O | 33 | 39.1 | 77.7 | 36.3 | 50 | > 64.9 | 57 | 32.5 | 39.7 | 42.9 | – | – | – | – | – | – | – | – | – | –
CCC1C(C#N)=C(O)NC(O)=C1C#N | > 100 | > 100 | – | – | > 100 | > 100 | – | > 100 | – | > 100 | – | – | – | – | – | – | – | – | – | –
O=C(O)C(O)(c1ccc(-c2ccccc2)cc1)c1ccc(-c2ccccc2)cc1 | 57.8 | > 100 | – | 70 | – | 94.7 | 61.2 | > 100 | > 100 | 37.4 | – | – | – | – | – | – | – | – | – | –
Clc1cc2ccccc2c2ccccc12 | > 100 | > 100 | > 100 | > 100 | – | > 100 | > 100 | > 100 | > 100 | > 100 | – | – | – | – | – | – | – | – | – | –
COc1ccc(NC(=S)NNC(=O)c2nsc3ccccc23)cc1 | > 100 | > 100 | – | – | – | > 100 | – | 36.7 | – | > 100 | – | – | – | – | – | – | – | – | – | –
Clc1ccc(C2CC(c3cccc(Nc4ccncc4)c3)=NN2c2ccc(Cl)cc2)cc1 (stereo not drawn) | – | 3.5 | – | 3.08 | 3.41 | 3 | – | – | – | 3.15 | – | – | – | 1.87 | 1.55 | 1.77 | 1.64 | – | – | 1.74
